Patent US6656968B1, “(Z)-styryl acetoxyphenyl sulfides as cyclooxygenase inhibitors” (Temple University - Of the Commonwealth System of Higher …, priority 1999, dated 2003)

Tests used:
human recombinant COX-2 = target: T1, human recombinant COX-2 (Homo sapiens, UniProt P35354); test: Cyclooxygenase enzyme assay (TLC method), COX-2; assay type: biochemical; settings: human recombinant COX-2, preincubation 90-120 min, [1-14C]arachidonic acid 50 μM
T1 construct: purchased Oxford Biomedical Research Inc
T1 sequence (P35354 18-604): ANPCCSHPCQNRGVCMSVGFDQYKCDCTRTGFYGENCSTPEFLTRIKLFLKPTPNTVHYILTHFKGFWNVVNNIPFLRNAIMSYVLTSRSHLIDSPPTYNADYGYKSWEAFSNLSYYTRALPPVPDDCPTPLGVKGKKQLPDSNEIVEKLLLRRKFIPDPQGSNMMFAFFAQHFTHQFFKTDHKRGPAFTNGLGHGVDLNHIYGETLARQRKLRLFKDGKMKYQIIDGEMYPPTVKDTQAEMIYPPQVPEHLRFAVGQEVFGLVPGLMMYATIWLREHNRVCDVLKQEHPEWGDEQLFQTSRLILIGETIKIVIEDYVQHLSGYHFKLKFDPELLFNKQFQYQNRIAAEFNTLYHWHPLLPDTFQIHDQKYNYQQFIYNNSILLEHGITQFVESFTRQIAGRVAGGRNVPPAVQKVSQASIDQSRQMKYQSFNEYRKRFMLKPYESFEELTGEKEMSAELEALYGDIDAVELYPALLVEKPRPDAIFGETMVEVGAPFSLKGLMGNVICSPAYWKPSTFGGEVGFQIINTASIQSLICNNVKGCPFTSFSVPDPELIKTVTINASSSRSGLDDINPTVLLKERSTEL
Protocol: The compounds of formula I are potent inhibitors of COX-2. […] The resulting radiolabeled prostanoid compounds, i.e., the products of COX-2 reaction with arachidonic acid, were quantified.
(§1) Cyclooxygenase activity of ovine COX-1 (Oxford Biomedical Research Inc.) and human recombinant COX-2 Oxford Biomedical Research Inc.) was assayed by a thin layer chromatography (TLC) method as follows. All inhibitors were dissolved in dimethyl sulfoxide to a stock solution of 5 mM. Human recombinant COX-2 (3 units) or ovine COX-1 (15 units) was incubated with inhibitors at several concentrations in a solution containing 100 mM Tris-HCl, pH7.8, 500 uM phenol and hematin for 90 to 120 minutes at room temperature (24° C.). In controls, equal volumes of DMSO without drug were added to the incubation mixture. After incubation for 90-120 minutes, [1-^14C]arachidonic acid (50 μM, 51 mCi/mmol) (DuPont NEN) was added and incubated at 37° C. for 2 minutes. The reaction was terminated by extraction with 1 ml of ethyl acetate. The ethyl acetate layer was transferred into a fresh tube and evaporated to dryness in a Speedvac vacuum dryer. The contents of the tubes were reconstituted in […] of ethyl acetate and spotted on a TLC plate (J. T. Baker, Phillipsburg, N.J.) and developed in a mobile phase containing chloroform/methanol (95:5) at4° C. Radiolabeled prostanoid compounds (the products of COX enzymatic reaction with radiolabeled arachidonic acid substrate) were quantitated with a radioactivity scanner (Fuji, Phosphorimager). The percentage of total products observed at different inhibitor concentrations was divided by the percentage of the products observed for protein samples pre incubated for the same time with DMSO.

HT29 cells [1] = test: Growth of monolayer cells; assay type: cell-based, human; settings: same concentration (10 μM)
Protocol: (§2) Z-styryl 2-acetoxyphenylsulfide (Example 1) was compared to the COX-2 inhibitor celecoxib in inhibiting the growth of HT29 cells in soft agar. HT29 cells are human colorectal carcinoma cells that overexpress COX-2. HT29 cells grow in soft agar and form tumors in nude mice. The soft agar assay was performed as follows. A layer of bottom agar ([…]) was placed onto 60 mm^2 tissue culture dishes. The tumor cells were trypsinized from normal growth flasks while in exponential growth. The cells were counted by using a hemacytometer and 1.0×10^5 cells were placed into the top agar mixture containing growth medium, […] and various concentrations of drugs. The concentration range was normally between 10 μM to 75 μM. The cells were not refed during the assay system; therefore, the cells were treated with one dose of the agents. The plates were stained 20 days later with a 0.05% (w/v) nitroblue tetrazolium solution (which stains only viable cells) for 48 hours. […] The same concentration of Z-styryl 2-acetoxyphenylsulfide had little affect on the growth of monolayer cells.

HT29 cells [2] = test: Soft agar assay, HT29 cells; assay type: cell-based, human; settings: HT29 in soft agar
Protocol: as §2

ovine COX-1 = target: T2, ovine COX-1 (Ovis aries, UniProt P05979); test: Cyclooxygenase enzyme assay (TLC method), COX-1; assay type: biochemical; settings: ovine COX-1, preincubation 90-120 min, [1-14C]arachidonic acid 50 μM
T2 construct: purchased Oxford Biomedical Research Inc
T2 sequence (P05979 25-600): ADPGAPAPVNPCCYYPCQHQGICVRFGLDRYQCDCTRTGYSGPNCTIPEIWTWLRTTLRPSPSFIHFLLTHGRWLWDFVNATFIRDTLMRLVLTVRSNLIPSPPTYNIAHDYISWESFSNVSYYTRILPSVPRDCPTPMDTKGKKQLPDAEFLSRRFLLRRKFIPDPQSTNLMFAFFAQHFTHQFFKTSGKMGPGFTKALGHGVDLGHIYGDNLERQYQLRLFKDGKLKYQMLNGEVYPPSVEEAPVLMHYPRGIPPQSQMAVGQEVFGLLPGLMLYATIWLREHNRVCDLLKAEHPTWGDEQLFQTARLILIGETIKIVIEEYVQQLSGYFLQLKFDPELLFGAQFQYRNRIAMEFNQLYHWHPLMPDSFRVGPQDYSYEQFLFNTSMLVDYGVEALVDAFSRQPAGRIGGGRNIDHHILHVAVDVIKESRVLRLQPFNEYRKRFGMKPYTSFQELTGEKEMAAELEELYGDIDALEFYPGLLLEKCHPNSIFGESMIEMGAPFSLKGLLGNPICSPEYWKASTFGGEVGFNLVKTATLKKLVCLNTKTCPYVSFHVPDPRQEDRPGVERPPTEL
Protocol: as §1

DLD-1 cells = test: Soft agar assay, DLD-1 cells; assay type: cell-based, human; settings: DLD-1 in soft agar, highest concentration tested, versus untreated control cells (FIG. 1)
Protocol: as §2
The same assay was carried out with DLD-1 cells. Like HT29, DLD-1 cells are human colorectal carcinoma cells that overexpress COX-2. They grow in soft agar and form tumors in nude mice. The results are shown in FIG. 1, the y-axis being the percent of cell colonies remaining in comparison to untreated control cells.

| Compound | IC50 (human recombinant COX-2) [µM] | effect on the growth of monolayer cells (HT29 cells [1]) | inhibition of anchorage independent growth (HT29 cells [2]; lowest concentration tested (10 μM), one dose, stained 20 days later) | concentrations at which plates were devoid of all staining cells (HT29 cells [2]; nitroblue tetrazolium stain (viable cells)) | IC50 (ovine COX-1) [µM] | inhibition of cell colony growth (DLD-1 cells) [%] |
| --- | --- | --- | --- | --- | --- | --- |
| CC(=O)Oc1ccccc1S/C=C\c1ccccc1 [Example 1, Z-styryl 2-acetoxyphenylsulfide] | 0.15 | little affect | completely inhibited | above 20 μM | 5 | 100 |
| CC(=O)Oc1ccccc1S/C=C\c1ccc(F)cc1 [Example 2, Z-4-Fluorostyryl 2-acetoxyphenylsulfide] | 0.35 | – | – | – | 4.5 | – |
| CC(=O)Oc1ccccc1S/C=C\c1ccccc1Cl [Example 3, Z-2-Chlorostyryl 2-acetoxyphenylsulfide] | 0.25 | – | – | – | 4 | – |
| CC(=O)Oc1ccccc1S/C=C\c1ccc(Cl)cc1 [Example 4, Z-4-Chlorostyryl 2-acetoxyphenylsulfide] | 0.2 | – | – | – | 4 | – |
| CC(=O)Oc1cccc(/C=C\Sc2ccccc2OC(C)=O)c1 [Example 10, Z-3-Acetoxystyryl 2-acetoxyphenylsulfide] | 0.7 | – | – | – | 2 | – |
